Experimental data as given in PubChem BioAssay (NCI).
Where “and” joins values, the source holds several entries; their conditions need not be identical. Identical values can stand only once.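 Grown in 96-well plates, cells were treated for 48 hours with each compound at five concentrations. Insufficient inhibition: endpoint recorded as highest concentration tested. Here, GI50 denotes the concentration required for 50% inhibition of growth. TGI denotes the concentration required for complete inhibition of growth.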

What was measured:
Test in all cases: growth of human tumour cells (NCI), 48 h
[1] = tested on: NCI-H226 lung
[2] = tested on: 786-0 renal
[3] = tested on: SNB-75 CNS
[4] = tested on: MCF7 breast
[5] = tested on: ACHN renal
[6] = tested on: SK-OV-3 ovarian
[7] = tested on: OVCAR-3 ovarian
[8] = tested on: RPMI-8226 leukemia
[9] = tested on: SK-MEL-28 melanoma
[10] = tested on: OVCAR-4 ovarian

Row | Compound | TGI [1] | TGI [2] [µM] | TGI [3] | TGI [4] | TGI [5] [µM] | TGI [6] [µM] | TGI [7] | TGI [8] | TGI [9] | TGI [10] | GI50 [1] [µM] | GI50 [4] [µM] | GI50 [7] [µM] | GI50 [8] [µM] | GI50 [9] [µM] | GI50 [10] [µM] | GI50 [3] [µM]
1 | COC(=O)c1c(C)nc2c1cc(O)c1[nH]c(C)c(C)nc12 | > 100 µM | > 100 | 71.8 µM | > 100 µM | > 100 | > 100 | > 100 µM | > 100 µM | > 100 µM | > 100 µM | – | – | – | – | – | – | –
2 | O=C(N/N=C/c1ccc(Cl)cc1)c1c(Cl)c(Cl)c(Cl)c(Cl)c1-c1nc2ccccc2[nH]1 | > 100 µM | > 100 | > 100 µM | > 100 µM | > 100 | > 100 | > 100 µM | > 100 µM | > 100 µM | – | – | – | – | – | – | – | –
3 | CCCCCC1=CC(=O)C1(Cl)Cl | 41.5 µM | 35.8 | 30.4 µM | 31.6 µM | 23.4 | 85.4 | 27 µM | 7.87 µM | 36.8 µM | 38.1 µM | – | – | – | – | – | – | –
4 | Cc1ccc(N(Cc2ccccc2)Cc2ccccc2)cc1 | > 100 µM | > 100 | > 100 µM | > 100 µM | > 100 | > 100 | > 100 µM | 43.6 µM | > 100 µM | > 100 µM | – | – | – | – | – | – | –
5 | Oc1ccc(Cc2cc(Cc3ccc(O)cc3)cc(Cc3ccc(O)cc3)c2)cc1 | > 50 µM | > 50 | > 50 µM | > 50 µM | > 50 | > 50 | > 50 µM | > 50 µM | > 50 µM | > 50 µM | – | – | – | – | – | – | –
6 | c1ccc2c(c1)Cn1c-2nc2ccccc21 | > 100 µM | > 100 | 73.3 µM | > 100 µM | > 100 | > 100 | > 100 µM | > 100 µM | > 100 µM | > 100 µM | – | – | – | – | – | – | –
7 | COP(=O)(OC)C1=c2c(C)noc2=C2C=COC2C1=O (stereo not drawn) | > 100 µM | > 100 | > 100 µM | > 100 µM | > 100 | > 100 | > 100 µM | > 100 µM | – | > 100 µM | – | – | – | – | – | – | –
8 | [N-]=[N+]=NC(c1ccccc1)(c1ccccc1)c1ccccc1 | 33.2 µM | 31.5 | 34.4 µM | 35.7 µM | 29.1 | > 100 | 42.5 µM | 62.6 µM | 37.8 µM | 57.9 µM | – | – | – | – | – | – | –
9 | Nc1nccc(-c2c[nH]c3cc(Br)ccc23)n1 | > 100 µM | 46.9 | > 100 µM | > 100 µM | 66 | 99.4 | > 100 µM | 49.5 µM | 86.8 µM | > 100 µM | – | – | – | – | – | – | –
10 | CC(=O)/C=C/C1=C(C)CCCC1(C)CC(C)C (stereo not drawn) | > 100 µM | 45.2 | 93 µM | 66.9 µM | 47.9 | > 100 | 83 µM | 36 µM | > 100 µM | > 100 µM | – | – | – | – | – | – | –
11 | CC(=O)N1C(C(=O)NC2CCCCC2)CSC1c1ccccc1 (stereo not drawn) | > 100 µM | > 100 | > 100 µM | > 100 µM | > 100 | > 100 | > 100 µM | > 100 µM | – | > 100 µM | – | – | – | – | – | – | –
12 | O=C1C=C[C@@H](COC2OC(CO)C(O)C(O)C2O)O1 (stereo partly drawn) | 48.9 µM and 96.9 µM | – | 29.7 µM and 31.8 µM | 3.81 µM and 19.6 µM | – | > 100 | 22.4 µM and 31.5 µM | – | 26.1 µM and > 100 µM | 28.2 µM and 33.6 µM | 17.6 | 1.24 | 10.6 | 2.45 | 11.8 | 13.2 | –
13 | COc1ccc(C(=C2C=CC=C2)c2ccc(OC)cc2)cc1 | > 100 µM | – | > 100 µM | 37.6 µM | > 100 | > 100 | > 100 µM | 28 µM | > 100 µM | > 100 µM | – | – | – | – | – | – | –
14 | COc1ccc2cc1Oc1ccc(cc1)C[C@H]1c3cc(c(OC)cc3CCN1C)Oc1c(O)c(OC)cc3c1[C@H](C2)N(C)CC3 | 63 µM | – | 52 µM | 51.5 µM | – | 44.5 | 46.8 µM | 75.2 µM | 48.3 µM | 58.1 µM | – | – | – | – | – | – | –
15 | Oc1ccc2c(c1)c1c(n2CCN2CCOCC2)-c2ccccc2CC1 | 85.6 µM | > 100 | 76.3 µM | > 100 µM | > 100 | > 100 | 49.5 µM | > 100 µM | 55.6 µM | – | – | – | – | – | – | – | –
16 | Nc1c(S(=O)(=O)O)cc2cc(S(=O)(=O)O)ccc2c1N=Nc1ccc(-c2ccc(N=Nc3c(N)c(S(=O)(=O)O)cc4cc(S(=O)(=O)O)ccc34)c(S(=O)(=O)O)c2)cc1 | > 100 µM | – | > 100 µM | 51.4 µM | – | > 100 | > 100 µM | > 100 µM | > 100 µM | 74.7 µM | – | – | – | – | – | – | –
17 | CCC(=O)NC(Nc1cc(C)on1)(C(F)(F)F)C(F)(F)F | > 100 µM | > 100 | > 100 µM | > 100 µM | > 100 | > 100 | > 100 µM | > 100 µM | > 100 µM | – | – | – | – | – | – | – | –
18 | COc1ccc2[nH]cc(/C=C(/C)c3ccncc3)c2c1 | 38.6 µM and > 100 µM | – | 29.5 µM and 7.19 µM | > 100 µM | – | 35.6 | > 100 µM | 16.5 µM and > 100 µM | > 100 µM | > 100 µM | 7.63 | 0.996 | 4.16 | 2.7 | 9.02 | 17.9 | 4.93
